The values below come from patent publication US20150337351A1, “METHODS OF MICROORGANISM IMMOBILIZATION” (priority 2014, published 2015).

The subject of assay [1] is Pseudomonas aeruginosa IHMA 519749 (Paer). The experiment in a line: Biosensor mixed species diffusion assay (immobilized cells, microscopic detection), growth of resistant strain. The assay is classed as cell-based. The settings on record: for Paer growth?: CAZ 16 (16 μg/mL), MHA 0.850% agar, 4 hours. How it is done: (§1) A mixed species diffusion variation of Hodge test using a biosensor with immobilized cells and microscopic detection was performed using the same bacterial strains. Heavy suspensions of Ecol and Paer were prepared in L-histidine buffer from fresh overnight blood agar plates. Heavy suspensions were diluted in normal saline to produce 0.5 McFarland suspensions, noting the volumes of each suspension required and using the same volumes to produce 10^8 cfu/mL suspensions of each strain in L-histidine. These suspensions were further diluted to create […] and 2×10^5 cfu/mL suspensions for heavy and moderate density working samples. The working samples were then diluted 1:1 in 2 mM L-DOPA for EKC.
(§2) The strains were next introduced to a biosensor for EKC, immobilization, and detection. Paer suspensions were loaded first, placing 5 uL in the exit port side (to maintain the resistant Paer isolate in one half of each channel) of each biosensor flowcell channel to cover one half of the flowcell. Six flowcells were loaded with each concentration. EKC was performed for 5 minutes at 1.5V, and then all flowcells were washed with two aliquots of 160 μL 1 mM L-DOPA (from the entry port). Ecol suspensions were next loaded, introducing 20 μL of cells suspension from the entry port to cover the full flowcell. Six flowcells were loaded with each concentration. EKC was performed for 5 minutes at 1.5V, and all flowcells washed with 160 μL of 1/10 MHB. The manner in which the cells were introduced and captures created a site comprising Ecol cells that were distal from any Paer cells (i.e., on the entry port side of the flowcell), as well as Ecol cells that were proximal to the Paer cells (i.e., on the exit port side of the flowcell).
(§3) Antibiotic media were prepared for immobilization and inhibition testing as follows. […] An immobilization medium source plate was prepared in the detection system and maintained at 45° C. The source plate wells were loaded with 20 μL of the 10× stocks and MHB without antibiotic for growth controls. The sample cassette was placed in the detection system and maintained at 40° C. A 180 uL volume of 0.944% MHA was added to each well of the source plate and mixed, and 100 uL of pre-immobilization immobilizing medium (with an agar concentration of 0.850%) was withdrawn and introduced to a flowcell in accordance with the experimental design. The loaded biosensor was allowed to equilibrate for 5 minutes, and was then removed and cooled for 5 minutes to induce the agar immobilizing agent to change to solid phase. The flowcell ports were then sealed, and growth, imaging, and analysis were performed, with examination of each flowcell for growth of Paer, examination of the distal portion of each flowcell for growth of Ecol in the absence of Paer (distal sensitivity), and examination of the proximal portion of each flowcell for growth of Ecol in the presence of Paer (proximal resistance), indicative of a positive mixed species resistance due to diffusion of metallo-beta-lactamase.
(§4) In order to test for enzyme-mediated cross-species resistance effects, a method for was devised to test a sensitive strain, Escherichia coli ATCC 25922 (Ecol), in the presence of a resistant strain, Pseudomonas aeruginosa IHMA 519749 (Paer) in the immobilized format. The method involved first immobilizing the resistant strain on the surface of a portion of each test flowcell of the cassette (approximately half) and then immobilizing the sensitive (sentinel) strain on the surface of the full flowcell including the area containing the resistant strain. This strategy provides an internal control for treatment effects on the sentinel strain in an area far from the resistant strain along with an area where close-field effects can be observed in the same flowcell. […]

Assay [2] relates to Escherichia coli ATCC 25922 (Ecol). The experiment in a line: Biosensor mixed species diffusion assay (immobilized cells, microscopic detection), growth of sentinel strain. The class given is cell-based. Conditions: for Mixed species resistance factor diffusion? / Ecol growth in distal site? / Ecol growth in proximal site?: CAZ 16 (16 μg/mL); for Ecol growth in distal site?: distal from Paer; for Ecol growth in proximal site?: proximal to Paer. As for the experimental part: as §1, §2, §3, §4

Assay [3] relates to P. aeruginosa 519749 (Paer). The experiment in a line: Plate-based disk diffusion tests, resistant strain. The class given is cell-based, Pseudomonas aeruginosa. Conditions: blood agar lawn plates, antibiotic disk, overnight at 35° C. How it is done: (§5) Several nutrient agar plating methods employing antibiotics, other chemicals, and one or more species of bacteria have been devised to study these mechanisms. The most basic of these tests, the disk-diffusion method, employs a single test strain of bacteria which is used to create a uniform layer or lawn when grown. A disk-containing antibiotic is placed on the inoculated plate and the plate is then incubated to grow the lawn. In cases where the strain is sensitive to the antibiotic, a zone of no growth is observed around the disk. The distance from the disk to the edge of this zone is an indicator of the level of resistance to the antibiotic present in the disk, based on how far the antibiotic can diffuse into the nutrient medium. A variation on this test is to employ a second disk or drop of fluid near the antibiotic disk that contains a chemical that can affect the antibiotic response. Differences between the zone in areas near the chemical and away from the chemical can indicate the type of resistance mechanism at work in the test. In this case, the chelating agent ethylenediamine tetraacetic acid (EDTA) (Sigma-Aldrich) can be used to test for the presence of a class of antibiotic resistance enzyme called metallo-beta-lactamase, which is inhibited by EDTA. The positive result for this test is a larger zone of inhibition near the EDTA indicating reduced effectiveness of the enzyme. […]
In general terms: In agar diffusion tests the substance spreads into inoculated agar from a disc or well.

Another assay has as its system E. coli 25922 (Ecol). The experiment in a line: Plate-based disk diffusion tests, sensitive strain. The assay is classed as cell-based, Escherichia coli. The settings on record: blood agar lawn plates, antibiotic disk, overnight at 35° C. How it is done: as §5
[4] abbreviates: Flowcell 5, Ecol 10^6/Paer 10^6.
[5] abbreviates: Flowcell 6, Ecol 10^6/Paer 10^5.
The mark [6] stands for this setting: Flowcell 7, Ecol 10^5/Paer 10^6.
Setting [7] is: Flowcell 8, Ecol 10^5/Paer 10^5.
[8] abbreviates: Flowcell 5, Ecol 10^6/Paer 10^6, 4 hours.
The mark [9] stands for this setting: Flowcell 6, Ecol 10^6/Paer 10^5, 4 hours.
The mark [10] stands for this setting: Flowcell 7, Ecol 10^5/Paer 10^6, 4 hours.
The mark [11] stands for this setting: Flowcell 8, Ecol 10^5/Paer 10^5, 4 hours.

`CC(C)(O/N=C(\C(=O)N[C@@H]1C(=O)N2C(C(=O)[O-])=C(C[n+]3ccccc3)CS[C@H]12)c1csc(N)n1)C(=O)O` [CAZ, ceftazidime]: the “Paer growth morphology and rate under antibiotic vs growth control” value in assay [1] (CAZ at 16 μg/mL, immobilized in MHA, proximal site) was “same morphology and growth rate as the growth control condition”. Further, the “Paer growth?” value in assay [1] (setting [4]), in assay [1] (setting [5]), in assay [1] (setting [6]) and in assay [1] (setting [7]) was “Yes” each time. Besides, the “Ecol growth and morphology under antibiotic (time-lapse images)” value in assay [2] (CAZ at 16 μg/mL, immobilized in MHA, 4 hours) was “slight growth or elongation of the single cell with later fading and in many colonies complete lysis”. Moreover, the “Mixed species resistance factor diffusion?” value in assay [2] (setting [4]), in assay [2] (setting [5]), in assay [2] (setting [6]) and in assay [2] (setting [7]) was “No” throughout. For the same compound, the “Ecol growth in distal site?” value in assay [2] (setting [8]), in assay [2] (setting [9]), in assay [2] (setting [10]) and in assay [2] (setting [11]) was “No” each time. Moreover, the “Ecol growth in proximal site?” value in assay [2] (setting [8]), in assay [2] (setting [9]), in assay [2] (setting [10]) and in assay [2] (setting [11]) was “No” each time. Besides, the “Resistance of Paer isolate in plating-based tests” value in assay [3] is given as “high resistance”. The “Zone of inhibition, Paer isolate” value in assay [3] is listed as “no zone of inhibition observed”. Further, the “Susceptibility of Ecol strain in plating-based tests” value in the assay with E. coli 25922 (Ecol) is reported as “sensitive”.
